Assays:
sedge, umbrella = test: Test B flood; type: in vivo, Cyperus difformis; details: 250 g ai/ha, visual rating on 0 to 100 scale (0 no effect, 100 complete control), 13 to 15 days
Outline: (§1)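 Plants were grown to the 2-leaf stage, then pots were flooded to 3 cm above the soil and compounds were applied directly into the paddy water. Water depth was held for the whole test; after 13 to 15 days in a greenhouse, injury was visually rated against untreated controls (0 = no effect, 100 = complete control).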

pigweed [1] = test: Test A postemergence; type: in vivo, Amaranthus retroflexus
Outline: (§2)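 Scoring was visual, on a scale where 100 means complete control and 0 means no effect, comparing treated with untreated plants around 10 days post-application. Compounds in surfactant-containing non-phytotoxic solvent were sprayed onto soil preemergence or onto one- to two-leaf seedlings (2–10 cm) postemergence.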

wheat [2] = test: Test A preemergence; type: in vivo, Triticum aestivum; details: preemergence
Outline: as §2

wheat [3] = test: Test A postemergence; type: in vivo, Triticum aestivum
Outline: as §2

corn [4] = test: Test A postemergence; type: in vivo, Zea mays
Outline: as §2

rice = test: Test B flood; type: in vivo, Oryza sativa; details: 250 g ai/ha, visual rating on 0 to 100 scale (0 no effect, 100 complete control), 13 to 15 days
Outline: as §1

barnyardgrass [5] = test: Test A preemergence; type: in vivo, Echinochloa crus-galli; details: preemergence
Outline: as §2

morningglory [6] = test: Test A preemergence; type: in vivo, Ipomoea spp.; details: preemergence
Outline: as §2

barnyardgrass [7] = test: Test A postemergence; type: in vivo, Echinochloa crus-galli
Outline: as §2

barnyardgrass [8] = test: Test B flood; type: in vivo, Echinochloa crus-galli; details: 250 g ai/ha, visual rating on 0 to 100 scale (0 no effect, 100 complete control), 13 to 15 days
Outline: as §1

crabgrass, large [9] = test: Test A preemergence; type: in vivo, Digitaria sanguinalis; details: preemergence
Outline: as §2

morningglory [10] = test: Test A postemergence; type: in vivo, Ipomoea spp.
Outline: as §2

ducksalad = test: Test B flood; type: in vivo, Heteranthera limosa; details: 250 g ai/ha, visual rating on 0 to 100 scale (0 no effect, 100 complete control), 13 to 15 days
Outline: as §1

corn [11] = test: Test A preemergence; type: in vivo, Zea mays; details: preemergence
Outline: as §2

crabgrass, large [12] = test: Test A postemergence; type: in vivo, Digitaria sanguinalis
Outline: as §2

velvetleaf [13] = test: Test A preemergence; type: in vivo, Abutilon theophrasti; details: preemergence
Outline: as §2

foxtail, giant [14] = test: Test A preemergence; type: in vivo, Setaria faberii; details: preemergence
Outline: as §2

foxtail, giant [15] = test: Test A postemergence; type: in vivo, Setaria faberii
Outline: as §2

pigweed [16] = test: Test A preemergence; type: in vivo, Amaranthus retroflexus; details: preemergence
Outline: as §2

velvetleaf [17] = test: Test A postemergence; type: in vivo, Abutilon theophrasti
Outline: as §2

[18] = Postemergence, 125 g ai/ha, 0 to 100 scale, 0 no effect, 100 complete control
[19] = Postemergence, 500 g ai/ha, 0 to 100 scale (0 no effect, 100 complete control)
[20] = 125 g ai/ha, visual injury approx. 10 days after treatment
[21] = 500 g ai/ha, visual injury after approx. 10 days, 0 to 100 scale (0 no effect, 100 complete control)
[22] = postemergence, 125 g ai/ha, about 10 days, visual rating on 0 to 100 scale (0 no effect, 100 complete control)
[23] = Postemergence, 500 g ai/ha, visual rating after approx. 10 days, 0 to 100 scale (0 no effect, 100 complete control)
[24] = 125 g ai/ha, visual injury, 0 to 100 scale, approx. 10 days

CCCNC(=O)c1cc(I)n(Cc2cccc(C(F)(F)F)c2)n1 [Compound 183]
20: Barnyardgrass plant response rating (barnyardgrass [7]; [19]) | Crabgrass, Large plant response rating (crabgrass, large [12]; [19]) | Foxtail, Giant plant response rating (foxtail, giant [15]; [19])
50: Foxtail, Giant plant response rating (foxtail, giant [14]; [21]) | Pigweed plant response rating (pigweed [16]; [21])
90: Pigweed plant response rating (pigweed [1]; [18]) | Morningglory plant response rating (morningglory [10]; [19])
10: Corn plant response rating (corn [4]; [19]) | Barnyardgrass plant response rating (barnyardgrass [5]; [21]) | Barnyardgrass plant response rating (barnyardgrass [7]; [22]) | Crabgrass, Large plant response rating (0 to 100 scale) (crabgrass, large [9]; [20]) | Morningglory plant response rating (morningglory [10]; [18]) | Crabgrass, Large plant response rating (crabgrass, large [12]; [22]) | Foxtail, Giant plant response rating (0 to 100 scale) (foxtail, giant [14]; [20]) | Foxtail, Giant plant response rating (foxtail, giant [15]; [22]) | Pigweed plant response rating (0 to 100 scale) (pigweed [16]; [20]) | Velvetleaf plant response rating (velvetleaf [17]; [18])
80: Pigweed plant response rating (pigweed [1]; [19]) | Crabgrass, Large plant response rating (crabgrass, large [9]; [21])
40: Velvetleaf plant response rating (velvetleaf [17]; [19])
0: Plant response rating, Sedge, Umbrella (sedge, umbrella) | Wheat plant response rating (0 to 100 scale) (wheat [2]; [20]) | Wheat plant response rating (wheat [2]; [21]) | Wheat plant response rating (wheat [3]; [18]) | Wheat plant response rating (wheat [3]; [19]) | Corn plant response rating (corn [4]; [22]) | Plant response rating, Rice (rice) | Barnyardgrass plant response rating (0 to 100 scale, 0 is no effect, 100 is complete control) (barnyardgrass [5]; [20]) | Morningglory plant response rating (0 to 100 scale) (morningglory [6]; [20]) | Morningglory plant response rating (morningglory [6]; [21]) | Plant response rating, Barnyardgrass (barnyardgrass [8]) | Plant response rating, Ducksalad (ducksalad) | Corn plant response rating (0 to 100 scale) (corn [11]; [20]) | Corn plant response rating (corn [11]; [21]) | Velvetleaf plant response rating (0 to 100 scale) (velvetleaf [13]; [20]) | Velvetleaf plant response rating (velvetleaf [13]; [21])

CCCCNC(=O)c1cc(CC)n(Oc2ccnc(C(F)(F)F)c2)n1 [Compound 86]
20: Morningglory plant response rating (morningglory [6]; [21]) | Barnyardgrass plant response rating (barnyardgrass [7]; [23]) | Corn plant response rating (corn [11]; [21])
40: Plant response rating, Sedge, Umbrella (sedge, umbrella) | Foxtail, Giant plant response rating (foxtail, giant [15]; [23]) | Velvetleaf plant response rating (velvetleaf [17]; [23])
10: Wheat plant response rating (wheat [3]; [23]) | Corn plant response rating (corn [4]; [22]) | Morningglory plant response rating (morningglory [10]; [22]) | Crabgrass, Large plant response rating (crabgrass, large [12]; [22]) | Foxtail, Giant plant response rating (foxtail, giant [15]; [22])
60: Morningglory plant response rating (morningglory [10]; [23])
50: Barnyardgrass plant response rating (barnyardgrass [5]; [21]) | Crabgrass, Large plant response rating (crabgrass, large [9]; [24]) | Crabgrass, Large plant response rating (crabgrass, large [12]; [23])
80: Crabgrass, Large plant response rating (crabgrass, large [9]; [21]) | Foxtail, Giant plant response rating (foxtail, giant [14]; [21])
0: Pigweed plant response rating (pigweed [1]; [23]) | Pigweed plant response rating (pigweed [1]; [22]) | Wheat plant response rating (wheat [2]; [24]) | Wheat plant response rating (wheat [2]; [21]) | Wheat plant response rating (wheat [3]; [22]) | Plant response rating, Rice (rice) | Barnyardgrass plant response rating (barnyardgrass [5]; [24]) | Morningglory plant response rating (morningglory [6]; [24]) | Barnyardgrass plant response rating (barnyardgrass [7]; [18]) | Plant response rating, Barnyardgrass (barnyardgrass [8]) | Plant response rating, Ducksalad (ducksalad) | Corn plant response rating (corn [11]; [24]) | Velvetleaf plant response rating (velvetleaf [13]; [24]) | Velvetleaf plant response rating (velvetleaf [13]; [21]) | Foxtail, Giant plant response rating (foxtail, giant [14]; [24]) | Pigweed plant response rating (pigweed [16]; [24]) | Pigweed plant response rating (pigweed [16]; [21])
30: Corn plant response rating (corn [4]; [23]) | Velvetleaf plant response rating (velvetleaf [17]; [22])
